In ChEMBL document CHEMBL1201862, “PubChem BioAssay data set” (2004):
Calls of active or inactive are those of the source.

Key:
cells [1] = format: functional, cell-based
cells [2] = format: functional, cell-based; remark: listed apart in the source
[3] = HEp-2 cell cytotoxicity, dose response, cytotoxicity control for RSV inhibitor project, HTS (AID 2410); format: functional; conditions: human respiratory syncytial virus
cells [4] = assay: cells
HEK293 = assay: inhibitors of LMP1-driven NF-kB reporter, dose response, cell-based, HEK293, luciferase, cherry-pick (AID 588343); format: functional; conditions: Homo sapiens
[5] = Luminescence Cell-Based Dose Response HTS to Identify Inhibitors of 5'UTR Stem-Loop Driven Prion Protein mRNA Translation in H4 Neuroglioblastoma Cells. [Related pubchem assays: 1827 (Project Summary), 1813 (Primary HTS)]; format: functional
[6] = inhibitors of SNCA 5'UTR-driven reporter translation, confirmation, H4 neuroglioma cells, luminescence (AID 1988); format: functional, cell-based
[7] = A cytotoxicity screen of small molecule inhibitors of the PhoP region in Salmonella typhi identified in the primary screen. [Related pubchem assays: 1850, 1864, 1985 ]; format: functional
[8] = biological target: Heat shock protein HSP 90-alpha (Homo sapiens, UniProt P07900); format: functional, organism-based
Large T antigen = Large T antigen (Simian virus 40, UniProt P03070); format: functional, Betapolyomavirus macacae;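 further: Confirmatory-stage PubChem screen for compounds that inhibit SV40 T antigen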
Chain of Large T antigen (P03070 whole entry): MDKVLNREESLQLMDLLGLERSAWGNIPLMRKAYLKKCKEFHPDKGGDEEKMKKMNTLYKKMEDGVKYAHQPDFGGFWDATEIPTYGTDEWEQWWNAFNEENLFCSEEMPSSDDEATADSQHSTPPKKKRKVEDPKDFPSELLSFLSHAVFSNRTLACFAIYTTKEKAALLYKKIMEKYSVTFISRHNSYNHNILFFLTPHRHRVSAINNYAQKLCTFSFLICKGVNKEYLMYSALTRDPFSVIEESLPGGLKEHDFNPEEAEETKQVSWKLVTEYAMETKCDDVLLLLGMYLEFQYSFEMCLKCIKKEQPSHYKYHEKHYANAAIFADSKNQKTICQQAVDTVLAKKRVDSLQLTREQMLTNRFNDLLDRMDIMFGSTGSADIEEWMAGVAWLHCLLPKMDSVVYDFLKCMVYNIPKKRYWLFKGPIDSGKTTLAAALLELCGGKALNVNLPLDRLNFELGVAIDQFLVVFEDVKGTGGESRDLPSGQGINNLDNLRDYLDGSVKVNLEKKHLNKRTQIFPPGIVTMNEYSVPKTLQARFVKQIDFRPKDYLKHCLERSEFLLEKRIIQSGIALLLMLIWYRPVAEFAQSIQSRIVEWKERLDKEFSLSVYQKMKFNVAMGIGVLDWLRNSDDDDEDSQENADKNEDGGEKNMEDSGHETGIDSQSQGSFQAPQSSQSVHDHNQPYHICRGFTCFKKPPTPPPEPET

INS1 = assay: beta cell apoptosis inhibitors, cytokine rescue, dose response, luminescence, retest (AID 449756); format: functional, cell-based; conditions: Rattus norvegicus;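 further: cell death triggered by IL-1 beta plus TNF-alpha plus IFN-gamma mixture; protective hits raise ATP signal compared with cytokine alone wells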
[9] = THP-1 cell cytotoxicity, dose response, cytotoxicity control for non-replicating M. tuberculosis project (AID 489025); format: functional
cells [10] = format: functional
[11] = growth suppression of beta-catenin-knockout colon cells, dose response, cell-based, HCT116, human colon tumor (AID 1045); format: functional;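 further: HCT116 colon tumor cells with beta catenin knocked out; cells exposed to compound for 60 hours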
[12] = growth suppression of PTEN-null colon cells, dose response, cell-based, HCT116 PTEN knockout (AID 1047); format: functional;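 further: HCT116 colon tumor cells with PTEN knocked out; cells exposed to compound for 60 hours before readout; potency for loss of cell viability measured by luminescence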
Streptokinase A = biological target: T1, Streptokinase A (Streptococcus pyogenes serotype M1, UniProt P10520); assay: S. pyogenes streptokinase expression inhibitors, potency, dose response, plasminogen activation absorbance, OD405 (AID 1914); format: functional, Streptococcus pyogenes M1 GAS;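 further: secreted streptokinase activity via plasminogen activation per viability signal from cell pellet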
T1 sequence (P10520 whole entry): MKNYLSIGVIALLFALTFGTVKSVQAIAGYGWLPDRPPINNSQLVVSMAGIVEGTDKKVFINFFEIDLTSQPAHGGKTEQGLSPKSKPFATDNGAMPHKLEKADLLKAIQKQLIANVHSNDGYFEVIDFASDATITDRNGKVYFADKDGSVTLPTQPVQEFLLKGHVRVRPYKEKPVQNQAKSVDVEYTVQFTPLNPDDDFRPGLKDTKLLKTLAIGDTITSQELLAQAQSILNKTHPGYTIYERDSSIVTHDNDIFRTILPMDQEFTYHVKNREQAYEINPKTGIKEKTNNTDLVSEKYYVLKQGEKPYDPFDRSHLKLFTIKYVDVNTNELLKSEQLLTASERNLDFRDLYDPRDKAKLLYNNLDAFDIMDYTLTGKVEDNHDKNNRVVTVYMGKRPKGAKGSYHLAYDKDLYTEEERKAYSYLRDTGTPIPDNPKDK

[13] = inhibitors of firefly luciferase expression or activity, dose response, H4 neuroglioma cells, luminescence (AID 1990); format: functional, cell-based
[14] = tested on: Streptococcus sp. 'group A'; assay: growth inhibition of control SK(-) GAS strain, dose response, counter-screen for streptokinase expression inhibitor project, luminescence, kanamycin, BacTiterGlo, confirmation (AID 1900); format: functional, organism-based
Streptococcus = assay: Group A Streptococcus viability loss, dose response, counter-screen for streptokinase expression inhibitor project, luminescence, BacTiterGlo (AID 1915); format: functional, organism-based;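 further: potency for reduction of bacterial viability or growth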

COC(=O)C1=C(C)N(Cc2ccc(OC)cc2)C(=O)C1
EC50 (cells [1]): > 350 µM (not active) | EC50 (cells [2]): > 350 µM (not active)

COC(=O)C1=C(C)N(Cc2ccco2)C(=O)N[C@H]1c1cccc(C(F)(F)F)c1
CC50 [3]: 25.6 µM (active) | IC50 (cells [4]): 1.47 µM (active)

CCn1nnc2cc(C(=O)NCCc3ccccc3F)ccc21
AC50 (HEK293): 3.14 µM (active) | EC50 [5]: 4.08 µM (active) | EC50 [6]: 5.03 µM (active)

COc1ccc(Cn2c(=N)c(C(=O)NCC3CCCO3)cc3c(=O)n4ccccc4nc32)cc1 (configuration not stated)
EC50 [7]: > 50 µM (active)

CN1C(=O)C(=C(Nc2ccc(F)cc2)c2ccccc2Cl)C(=O)N(C)C1=O
AC50 [8]: 3.17 µM (active)

O=C(N/N=C/c1ccc(O)c(O)c1)c1cccc(S(=O)(=O)N2CCCC2)c1
IC50 (Large T antigen): 4.72 µM (active)

N=C(NOS(=O)(=O)c1ccccc1)c1cccnc1
EC50 [7]: > 50 µM (active)

CC(=O)Oc1ccc(N(C(C)=O)S(=O)(=O)c2cccs2)c2ccccc12
AC50 (INS1): 8.83 µM (active) | CC50 [9]: 26.1 µM (active)

CCc1nn2cc(-c3ccccc3)nc2s1
AC50 (HEK293): 2.06 µM (active)

O=C(N/N=C/C(Br)=C/c1ccccc1)c1ccncc1
CC50 [9]: > 40 µM (active) | IC50 (cells [10]): 0.61 µM (active)

NC(=O)c1c(NC(=O)CSc2nc(N)cc(O)n2)sc2c1CCCC2
EC50 [7]: > 50 µM (active)

Cc1occc1C(=O)NC1CCCCCC1
EC50 (cells [1]): > 350 µM (not active) | EC50 (cells [2]): 73 µM (active)

O=C(CSc1nnc(-c2ccccc2Cl)o1)N1CCOCC1
EC50 (cells [1]): > 350 µM (not active) | EC50 (cells [2]): > 350 µM (not active)

CCOC(=O)c1c(C)[nH]c(C(=O)OCC(=O)Nc2cc(C)c(Cl)cc2OC)c1C
EC50 [11]: 16.2 µM (active) | EC50 [12]: 12.8 µM (active)

CN(C)c1ccc(NC(=O)/C=C/c2c(Cl)cccc2Cl)cc1
CC50 [3]: 17.3 µM (active) | IC50 (cells [4]): 10.2 µM (active)

CCc1nc(SCC(=O)N2c3ccccc3CC2C)c2c(C)c(C)sc2n1 (configuration not stated)
EC50 (Streptokinase A): 57.8 µM (active) | EC50 [5]: 18 µM (active) | CC50 [3]: 5.39 µM (active) | EC50 [13]: > 120 µM (not active) | EC50 [14]: 13.8 µM (active) | EC50 (Streptococcus): > 150 µM (not active) | IC50 (cells [4]): 3.55 µM (active)
